Data: patent publication US20200385371A1 (Propellon Therapeutics Inc., priority 2017, published 2020)

What was measured:
[1] = system: MV4-11 cells; assay: Cell proliferation assay (ATPlite); assay type: cell-based; settings: Homo sapiens, 120 h; MV4-11 cells, five days; read-out: GI MV411 EC50
How it was run: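 Cells seeded at 1,000/well in Alpha-MEM with 10% FBS, treated with compound over a 10-point range (top 10 μM) or DMSO. Grown five days at 37° C, 5% CO2; viability by ATPlite luminescence.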

[2] = target: T1, WDR5 (Homo sapiens, UniProt P61964); assay: Fluorescence Polarization (FP) binding assay
How it was run: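 Displacement of fluorescein-labelled H3 (1-15) (30 nM, with 0.3 μM WDR5) or 9-Ala-FAM (20 nM, with 0.05 μM WDR5) in 80 mM sodium phosphate pH 6.5, 20 mM KCl, 0.008% Triton X-100. FP read at 485/528 nm (H3) or 480/540 nm (9-Ala-FAM); Kdisp from hyperbolic fit, mean of quadruplicates.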

[3] = target: T1, WDR5; assay: Surface Plasmon Resonance (SPR) assay; assay type: binding; parameters: Full length WDR5 with an N-terminal His tag and C-terminal AviTag; His tag (N); made in house; host or cells: E. coli; settings: read-out: SPR Kd
How it was run: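 Full-length biotinylated WDR5 (N-His, C-AviTag, E. coli) captured (~3000 RU) on streptavidin SA chip; Biacore T200. HBS-EP pH 7.4 plus 5% DMSO running buffer, 40 μl/min.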

Structure (SMILES)	EC50 [1]	IC50 [2]	Kd [3]
C[C@@H]1CN(c2ccc(-c3c(F)cc(N4C[C@@H](C)N(C)[C@@H](C)C4)c(NC(=O)c4c[nH]c(=O)cc4C(F)(F)F)c3F)cn2)CCO1 [Example 168, N-(2,4-difluoro-3-(6-((R)-2-methylmorpholino)pyridin-3-yl)-6-((3S,5R)-3,4,5-trimethylpiperazin-1-yl)phenyl)-6-oxo-4-(trifluoromethyl)-1,6-dihydropyridine-3-carboxamide]	0.0368 µM	0.0166 µM	0.00087 µM
C[C@H]1CN(c2cc(F)c(-c3ccc(N4CCOCC4)nc3)c(F)c2NC(=O)c2ccc(F)cc2C(F)(F)F)CCN1C [Example 174, (S)—N-(6-(3,4-dimethylpiperazin-1-yl)-2,4-difluoro-3-(6-morpholinopyridin-3-yl)phenyl)-4-fluoro-2-(trifluoromethyl)benzamide]	0.191 µM	0.0195 µM	0.00171 µM
C[C@H]1CN(c2cc(F)c(C3=CCN(c4ncc(F)cn4)CC3)c(F)c2NC(=O)c2c[nH]c(=O)cc2C(F)(F)F)CCN1C [Example 82, (S)—N-(6-(3,4-dimethylpiperazin-1-yl)-2,4-difluoro-3-(1-(5-fluoropyrimidin-2-yl)-1,2,3,6-tetrahydropyridin-4-yl)phenyl)-6-oxo-4-(trifluoromethyl)-1,6-dihydropyridine-3-carboxamide]	0.0528 µM	0.016 µM	0.00122 µM
C[C@@H]1CN(c2cc(F)c(-c3ccc(C(N)=O)c(F)c3)c(F)c2NC(=O)c2c[nH]c(=O)cc2C(F)(F)F)C[C@H](C)N1C [Example 25, N-(4′-carbamoyl-2,3′,6-trifluoro-4-((3S,5R)-3,4,5-trimethylpiperazin-1-yl)-[1,1′-biphenyl]-3-yl)-6-oxo-4-(trifluoromethyl)-1,6-dihydropyridine-3-carboxamide]	0.148 µM	0.0195 µM	0.00205 µM
COc1cnc(N2CC=C(c3c(F)cc(N4CCN(C)[C@@H](C)C4)c(NC(=O)c4c[nH]c(=O)cc4C(F)(F)F)c3F)CC2)nc1 [Example 53, (S)—N-(6-(3,4-dimethylpiperazin-1-yl)-2,4-difluoro-3-(1-(5-methoxypyrimidin-2-yl)-1,2,3,6-tetrahydropyridin-4-yl)phenyl)-6-oxo-4-(trifluoromethyl)-1,6-dihydropyridine-3-carboxamide]	0.0758 µM	0.0195 µM	0.00102 µM
CC(C)[C@@H]1CN(c2ncc(-c3c(F)cc(N4CCN(C)[C@@H](C)C4)c(NC(=O)c4c[nH]c(=O)cc4C(F)(F)F)c3F)cn2)CCO1 [Example 104, N-(6-((S)-3,4-dimethylpiperazin-1-yl)-2,4-difluoro-3-(2-((R)-2-isopropylmorpholino)pyrimidin-5-yl)phenyl)-6-oxo-4-(trifluoromethyl)-1,6-dihydropyridine-3-carboxamide]	0.0203 µM	0.0165 µM	0.00225 µM
COc1cc(N2CC=C(c3c(F)cc(N4CCN(C)[C@@H](C)C4)c(NC(=O)c4c[nH]c(=O)cc4C(F)(F)F)c3F)C2)ncn1 [Example 75, (S)—N-(6-(3,4-dimethylpiperazin-1-yl)-2,4-difluoro-3-(1-(6-methoxypyrimidin-4-yl)-2,5-dihydro-1H-pyrrol-3-yl)phenyl)-6-oxo-4-(trifluoromethyl)-1,6-dihydropyridine-3-carboxamide]	0.0351 µM	0.0185 µM	0.0018 µM
CC(C)[C@H]1CN(c2ncc(-c3c(F)cc(N4CCN(C)[C@@H](C)C4)c(NC(=O)c4c[nH]c(=O)cc4C(F)(F)F)c3F)cn2)CCO1 [Example 102, N-(6-((S)-3,4-dimethylpiperazin-1-yl)-2,4-difluoro-3-(2-((S)-2-isopropylmorpholino)pyrimidin-5-yl)phenyl)-6-oxo-4-(trifluoromethyl)-1,6-dihydropyridine-3-carboxamide]	0.0143 µM	0.0117 µM	0.00044 µM
C[C@@H]1CN(c2cc(F)c(-c3cnc(N4CCO[C@@H](C)C4)nc3)c(F)c2NC(=O)c2c[nH]c(=O)cc2C(F)(F)F)C[C@H](C)N1C [Example 101, N-(2,4-difluoro-3-(2-((S)-2-methylmorpholino)pyrimidin-5-yl)-6-((3S,5R)-3,4,5-trimethylpiperazin-1-yl)phenyl)-6-oxo-4-(trifluoromethyl)-1,6-dihydropyridine-3-carboxamide]	0.0118 µM	0.021 µM	0.00617 µM
CC(C)OC(=O)N1CCC=C(c2c(F)cc(N3CCN(C)[C@@H](C)C3)c(NC(=O)c3c[nH]c(=O)cc3C(F)F)c2F)C1 [Example 35, Isopropyl (S)-5-(3-(4-(difluoromethyl)-6-oxo-1,6-dihydropyridine-3-carboxamido)-4-(3,4-dimethylpiperazin-1-yl)-2,6-difluorophenyl)-3,6-dihydropyridine-1(2H)-carboxylate]	0.409 µM	0.0294 µM	0.00629 µM
COc1cc(N2CC=C(c3c(F)cc(N4C[C@@H](C)N(C)[C@@H](C)C4)c(NC(=O)c4c[nH]c(=O)cc4C(F)(F)F)c3F)C2)ncn1 [Example 143, N-(2,4-difluoro-3-(1-(6-methoxypyrimidin-4-yl)-2,5-dihydro-1H-pyrrol-3-yl)-6-((3S,5R)-3,4,5-trimethylpiperazin-1-yl)phenyl)-6-oxo-4-(trifluoromethyl)-1,6-dihydropyridine-3-carboxamide]	0.0177 µM	0.0144 µM	0.00092 µM
C[C@@H]1CN(c2nccc(-c3c(F)cc(N4C[C@@H](C)N(C)[C@@H](C)C4)c(NC(=O)c4c[nH]c(=O)cc4C(F)(F)F)c3F)n2)C[C@H](C)O1 [Example 77, N-(3-(2-((2S,6R)-2,6-dimethylmorpholino)pyrimidin-4-yl)-2,4-difluoro-6-((3S,5R)-3,4,5-trimethylpiperazin-1-yl)phenyl)-6-oxo-4-(trifluoromethyl)-1,6-dihydropyridine-3-carboxamide]	0.108 µM	0.0101 µM	0.00112 µM
COc1cnc(N2CCC=C(c3c(F)cc(N4C[C@@H](C)N(C)[C@@H](C)C4)c(NC(=O)c4c[nH]c(=O)cc4C(F)(F)F)c3F)C2)nc1 [Example 138, N-(2,4-difluoro-3-(1-(5-methoxypyrimidin-2-yl)-1,2,5,6-tetrahydropyridin-3-yl)-6-((3S,5R)-3,4,5-trimethylpiperazin-1-yl)phenyl)-6-oxo-4-(trifluoromethyl)-1,6-dihydropyridine-3-carboxamide]	0.109 µM	0.0195 µM	0.00193 µM
CNC(=O)c1cc(-c2c(F)cc(N3C[C@@H](C)N(C)[C@@H](C)C3)c(NC(=O)c3c[nH]c(=O)cc3C(F)(F)F)c2F)ccc1F [Example 29, 6-Oxo-N-(2,4′,6-trifluoro-3′-(methylcarbamoyl)-4-((3S,5R)-3,4,5-trimethylpiperazin-1-yl)-[1,1′-biphenyl]-3-yl)-4-(trifluoromethyl)-1,6-dihydropyridine-3-carboxamide]	1.11 µM	0.0224 µM	0.0039 µM
C[C@H]1CN(c2cc(F)c(-c3cnc(N4CCNCC4)nc3)c(F)c2NC(=O)c2ccc(F)cc2C(F)(F)F)CCN1C [Example 173, (S)—N-(6-(3,4-dimethylpiperazin-1-yl)-2,4-difluoro-3-(2-(piperazin-1-yl)pyrimidin-5-yl)phenyl)-4-fluoro-2-(trifluoromethyl)benzamide]	0.0244 µM	0.016 µM	0.00135 µM
COc1cc(N2CCC=C(c3c(F)cc(N4C[C@@H](C)N(C)[C@@H](C)C4)c(NC(=O)c4c[nH]c(=O)cc4C(F)(F)F)c3F)C2)ncn1 [Example 142, N-(2,4-difluoro-3-(1-(6-methoxypyrimidin-4-yl)-1,2,5,6-tetrahydropyridin-3-yl)-6-((3S,5R)-3,4,5-trimethylpiperazin-1-yl)phenyl)-6-oxo-4-(trifluoromethyl)-1,6-dihydropyridine-3-carboxamide]	0.0383 µM	0.0132 µM	0.00176 µM
C[C@@H]1CN(c2cc(F)c(-c3ccnc(N4CCOCC4)c3)c(F)c2NC(=O)c2c[nH]c(=O)cc2C(F)(F)F)C[C@H](C)N1C [Example 69, N-(2,4-difluoro-3-(2-morpholinopyridin-4-yl)-6-((3S,5R)-3,4,5-trimethylpiperazin-1-yl)phenyl)-6-oxo-4-(trifluoromethyl)-1,6-dihydropyridine-3-carboxamide]	0.417 µM	0.0232 µM	0.00301 µM
C[C@@H]1CN(c2cc(F)c(C3=CCN(c4ncc(C#N)s4)CC3)c(F)c2NC(=O)c2c[nH]c(=O)cc2C(F)(F)F)C[C@H](C)N1C [Example 148, N-(3-(1-(5-cyanothiazol-2-yl)-1,2,3,6-tetrahydropyridin-4-yl)-2,4-difluoro-6-((3S,5R)-3,4,5-trimethylpiperazin-1-yl)phenyl)-6-oxo-4-(trifluoromethyl)-1,6-dihydropyridine-3-carboxamide]	0.0749 µM	0.0129 µM	0.00209 µM
CC(C)[C@@H]1CN(c2ncc(-c3c(F)cc(N4CCN(C)[C@@H](C)C4)c(NC(=O)c4c[nH]c(=O)cc4C(F)F)c3F)cn2)CCO1 [Example 117, 4-(Difluoromethyl)-N-(6-((S)-3,4-dimethylpiperazin-1-yl)-2,4-difluoro-3-(2-((R)-2-isopropylmorpholino)pyrimidin-5-yl)phenyl)-6-oxo-1,6-dihydropyridine-3-carboxamide]	0.0282 µM	0.0136 µM	0.00084 µM
